Broadly, the logD is the decadic logarithm of the distribution of all forms, ionised or not, between an organic phase and buffer at a given pH. The IC50 is the concentration needed to halve the response being measured. Read a high IC50 as lower potency.

The source of these data is ChEMBL document CHEMBL1130224, “5-(N-oxyaza)-7-substituted-1,4-dihydroquinoxaline-2,3-diones: novel, systemically active and broad spectrum antagonists for NMDA/glycine, AMPA, and kainate receptors” (J Med Chem, 1997).

The species entered for data set [1] is Mus musculus. The data set can be described thus: Anticonvulsant activity tested in mouse. Format: functional.
Data set [2] in a line: Partition coefficient determined using octanol versus pH 7.4 buffer. The data set is classed as physicochemical. The following applies: octanol/pH 7.4 buffer.
Data set [3] concerns the target T1, Glutamate receptor ionotropic, AMPA (Rattus norvegicus, UniProt P19490+P19491+P19492+P19493).
Description: Binding affinity in rat brain cortical membranes by the displacement of [3H]AMPA at Ionotropic glutamate receptor AMPA
Data set [4] concerns the target Glutamate receptor ionotropic, kainate. Kind of data set: Displacement of [3H]kainate from rat brain cortical membrane Ionotropic glutamate receptor kainate. In general terms: Displacement assays read how much labelled ligand stays bound in the presence of the test substance.
In data set [5] the target is T2, Glutamate receptor ionotropic, NMDA 1 (Rattus norvegicus, UniProt P35439). Kind of data set: Binding affinity in rat brain cortical membranes by the displacement of [3H]- DCKA at N-methyl-D-aspartate glutamate receptor 1. The data set is classed as cell membranes.
Data set [6] concerns Mus musculus. Kind of data set: Antinociceptive activity in mouse tail flick test, when administered intrathecally. Format: functional. (In general: In hot-plate and tail-flick tests a longer latency is read as antinociception.)
Data set [7] is filed under the species Mus musculus. Kind of data set: Mouse maximum electroshock induced test seizure test in mice. The data set is classed as functional.
The target in a further data set is Glutamate NMDA receptor. Kind of data set: Displacement of [3H]DCKA at N-methyl-D-aspartate glutamate receptor 1. The data set is classed as protein-complex assay, Rattus norvegicus.
Data set [8] has as its target Glutamate receptor ionotropic, NMDA 1 (Rattus norvegicus) (UniProt P35439). Kind of data set: Inhibition of N-methyl-D-aspartate glutamate receptor 1 was measured in oocytes expressing the cloned rat NMDA receptor subunit combination NR1A/2C. The data set is classed as functional, cell-based. Particulars: Oocyte.
Data set [9] deals with Glutamate receptor ionotropic, AMPA (Rattus norvegicus) (UniProt P19491+P19492+P19493+P19490). The data set can be described thus: Inhibition of Ionotropic glutamate receptor AMPA was measured in oocytes expressing rat cerebral cortex poly (A)+ RNA. The data set is classed as functional, cell-based. The following applies: Oocyte.
In data set [10] the target is Glutamate receptor ionotropic, NMDA 1 (Rattus norvegicus) (UniProt P35439). Kind of data set: Inhibition of NMDA/glycine receptors was measured in oocytes expressing the cloned rat NMDA receptor subunit combination NR1A/2C. The following applies: Oocyte. Format: functional, cell-based.
The test system of a further data set is Rattus norvegicus. The data set can be described thus: Reduction in cortical infarct volume when 20 mg/kg administarted Iv bolus followed by 14 mg/kg /h IV infusion for 22 hr in rat peramanent middle cerebral artery (MCA). The data set is classed as functional.
The nature of data set [11]: The steady state selectivity index for inhibition of NMDA/glycine receptors was estimated by dividing Kb (AMPA) by Kb (NMDA/glycine).
The target of data set [12] is T2, Glutamate receptor ionotropic, NMDA 1. The data set can be described thus: Inhibition of binding of [3H]DCKA to N-methyl-D-aspartate glutamate receptor 1 in rat brain membrane. The data set is classed as cell membranes.
Data set [13] deals with T1, Glutamate receptor ionotropic, AMPA. Kind of data set: Inhibition of binding of [3H]AMPA to Ionotropic glutamate receptor AMPA in rat brain membrane. The data set is classed as cell membranes.
Data set [14] relates to Mus musculus. Kind of data set: Antinociceptive activity of tail flick test in mice, when administarted intrathecally. Format: functional.

In turn, `O=c1[nH]c2cc(C(F)(F)F)c[n+]([O-])c2[nH]c1=O` had an ED50 in the data set listed under Mus musculus [1] of 6.3 mg/kg. For the same compound, the pH-dependent lipophilicity (logD) in data set [2] is -2.35. Also, the IC50 in data set [3] came to 5.9 µM; in data set [4] it was 7.5 µM; in data set [5], 1.05 µM.
In the case of `O=c1[nH]c2cc([N+](=O)[O-])c[n+]([O-])c2[nH]c1=O`, the figures for the ED50 in the data set listed under Mus musculus [1] and in the data set with Mus musculus [6] were 4.6 mg/kg and 2.6 ug mouse-1, respectively. The pH-dependent lipophilicity (logD) in data set [2] is -3.31. In addition, the results for the IC50 in data set [3], in data set [4] and in data set [5] were 1.3 µM, 2.4 µM and 0.69 µM, respectively.
`CN1CCc2c([N+](=O)[O-])cc3[nH]c(=O)c(=O)[nH]c3c2C1` yielded an ED50 in the data set listed under Mus musculus [7] of 0.44 mg/kg. Also, the IC50 was found to be 0.36 µM in [4] and 0.37 µM on Glutamate NMDA receptor.
Consider `O=[N+]([O-])c1cnc2nc(O)c(O)nc2c1`, for which the ED50 in the data set filed under Mus musculus [1] was 4.5 mg/kg. The pH-dependent lipophilicity (logD) in data set [2] was -0.97. Further, the figures for the IC50 (in data set [3]; in [4]; at Glutamate NMDA receptor) were 3.3 µM, 4.4 µM and 1.1 µM, respectively. Moreover, the results for the Kb in [8] and in data set [9] were 0.43 µM and 1.4 µM, respectively.
Regarding `Oc1nc2cc(Cl)cnc2nc1O`, the IC50 in data set [3] came out at 38 µM; in data set [4] it was 22 µM; at Glutamate NMDA receptor, 2.2 µM.
In turn, `[O-][n+]1cc(Cl)cc2nc(O)c(O)nc21` displayed an ED50 in the data set filed under Mus musculus [1] of 0.82 mg/kg. In data set [2], this compound returned a logD of -2.66. The half-inhibitory concentration (IC50) in data set [3] worked out at 9.9 µM; in data set [4] it was 5.3 µM; at Glutamate NMDA receptor it was 0.82 µM. In addition, the Kb in [10] stood at 0.63 µM; in [9], 3.9 µM. For the same compound, the Reduction in the data set on Rattus norvegicus was found to be 67%. Besides, the Selectivity index in data set [11] is 6.2.
`O=[N+]([O-])c1ccc2cc(NS(=O)(=O)C(F)(F)F)c(O)nc2c1`: the figures for the half-inhibitory concentration (IC50) in data set [12] and in data set [13] were 0.62 µM and 0.63 µM, respectively.
Compound `Cc1cc2[nH]c(=O)c(=O)[nH]c2[n+]([O-])c1` had an ED50 in the data set filed under Mus musculus [1] of 0.97 mg/kg. In addition, in data set [2], the log distribution coefficient (logD) was -2.91. Moreover, the half-inhibitory concentration (IC50) turned out to be 14 µM in data set [3], 11.9 µM in [4] and 5.9 µM in data set [5].
Turning to `[O-][n+]1cc(Br)cc2nc(O)c(O)nc21`, the ED50 in the data set listed under Mus musculus [1] came to 0.87 mg/kg. Moreover, in data set [2], the logD is -2.48. The values for the IC50 in data set [3], in data set [4] and in [5] were 6.7 µM, 3.4 µM and 1 µM, respectively.
Regarding `Cc1cnc2nc(O)c(O)nc2c1`, the IC50 in data set [3] was 67 µM; in data set [4] it was 49 µM; on Glutamate NMDA receptor, 41 µM.
With `O=[N+]([O-])c1ccc2nc(O)c(O)nc2c1`, the IC50 in [3] came out at 7.7 µM; in data set [4] it was 15 µM; at Glutamate NMDA receptor it was 3.8 µM.
In the case of `Oc1nc2cc(Br)cnc2nc1O`, the IC50 in data set [3] is 32 µM; in data set [4], 16 µM; at Glutamate NMDA receptor it was 4.1 µM.
As to `Oc1nc2cc(C(F)(F)F)cnc2nc1O`, the IC50 amounted to 18 µM in data set [3], 16 µM in data set [4] and 1.9 µM at Glutamate NMDA receptor.
Consider `O=c1[nH]c2ccc(Cl)cc2[nH]c1=O`, for which the half-inhibitory concentration (IC50) in data set [3] and in data set [4] was 52 µM in each case.
Regarding `O=c1[nH]c2cc(Cl)c(Cl)c([N+](=O)[O-])c2[nH]c1=O` [LICOSTINEL], in the data set filed under Mus musculus [1], the ED50 was found to be 4 mg/kg. The compound also showed a logD in [2] of 0.21. Further, the IC50 in [3] stood at 1.5 µM; at Glutamate NMDA receptor, 0.0059 µM.
Take `NS(=O)(=O)c1cccc2c1c([N+](=O)[O-])cc1nc(O)c(O)nc12` [NBQX]: the ED50 was found to be 13.1 mg/kg in the data set filed under Mus musculus [7] and 1.6 ug mouse-1 in the data set with Mus musculus [14].
On to `O=C1Nc2cc(Cl)ccc2CC1[N+](=O)[O-]` (configuration not stated), for which the Kb in data set [8] is 6.7 µM; in data set [9], 9.2 µM.
